Assay results as given in patent US20110077230A1, “COPPER ORGANOCOMPLEXES, USE THEREOF AS ANTITUMOR MEANS AND FOR PROTECTING HEALTHY TISSUE FROM IONIZING RADIATION” (CHARITE - UNIVERSITATSMEDIZIN BERLIN, priority 2008, published 2011).

Tests used:
lymphoma cells (BJAB) = assay: Combined administration of complex A and cytarabine, DNA fragmentation; type: cell-based, human; settings: 48 hours
Procedure: Incubation was performed for 48 hours at 37° C. and 5% CO2, carrying along zero and solvent controls. DNA fragmentation is determined by flow cytometry after staining the cells with propidium iodide.

[1] = tested on: BJAB cells (lymphoma cell line); assay: Induction of apoptosis (DNA fragmentation, propidium iodide, FACS) in BJAB cells; type: cell-based, human; settings: 0.1 mmol of complex A, 72 hours
Procedure: BJAB cells (lymphoma cell line) at a concentration of 1×10^5/ml were treated with increasing concentrations of complex A dissolved in DMSO and incubated for 72 hours at 37° C. and 5% CO2. Following propidium iodide staining, the DNA fragments were detected using flow cytometry (FACS analysis). KO (untreated cell suspension) and DMSO were carried along in an equivalent treatment.

BJAB cells = assay: Change in mitochondrial membrane potential (JC-1, flow cytometry) in BJAB cells; type: cell-based, human; settings: 48 hours, concentration-dependent
Procedure: Following treatment of the BJAB cells with different concentrations of complex A, carrying along a zero control and a solvent control, the cells were incubated for 48 hours at a temperature of 37° C. and 5% CO2. […] A concentration-dependent change of the mitochondrial membrane potential induced by complex A is found in more than 30% of the cells.

[2] = tested on: colon adenocarcinoma tumor (AKATOL); assay: Transplanted colon adenocarcinoma (AKATOL), intraabdominal injection; type: in vivo, mice of the BALB line; set-up: Average weight: unit not given here; settings: for Average volume of tumor: day 21
Procedure: A suspension of tumor cells was injected into the thighs of 15 mice of the BALB line. The animals received the complex A preparation at a dose of 5 mg/kg 4, 6, 8 and 11 days after implantation.
Group I received the preparation dissolved in DMSO and dispersed in a 4% suspension in physiological saline.
Group II received the preparation in Tween 60.
Group III remained untreated.
On day 21 of the experiment the animals were sacrificed and examined.

[3] = Group I: 5 mg/kg in DMSO/physiological saline

## Copper-sarcolysine hydrochloride complex [complex A]
Lymphoma cells (BJAB)
  synergy effect with cytarabine, induction of apoptosis: 129%
[1]
  induction of apoptosis, % of the cells: 43.5%
BJAB cells
  cells with change of the mitochondrial membrane potential: more than 30%
[2]; Group I: 5 mg/kg in DMSO, 4% suspension in physiological saline
  Average volume of tumor: 1.315 cm^3
[2]; [3]
  % inhibition, mass percent: 60.4%
  % inhibition, volume percent: 87.1%
  Average weight: 1.25
[2]; Group II: 5 mg/kg in Tween 60
  % inhibition, mass percent: 95.85%
  % inhibition, volume percent: 97.8%
  Average weight: 0.25
  Average volume of tumor: 0.217 cm^3
